Values of other authors, collected in patent US9358298B2, “17-hydroxyprogesterone ester containing oral compositions and related methods” (Lipocine Inc., priority 2011, dated 2016).

Assays:
[1] = given by mouth; Saxton et al. 2004, Greene NEJM

- solubility in water: < 0.02 µg/mL
SMILES: CCCCCC(=O)O[C@]1(C(C)=O)CC[C@H]2[C@@H]3CCC4=CC(=O)CC[C@]4(C)[C@H]3CC[C@@]21C [17-hydroxyprogesterone caproate, 17-alpha-hydroxyprogesterone caproate]
- oral activity [1]: no oral activity
